The record followed here is patent publication US12031986B2, “Polypeptide for targeting recognition of immune cells and application thereof” (KEYANGLE LIFE TECHNOLOGY CO., LTD., priority 2019, dated 2024).

“Also recorded” adds a separate entry of the source. No end group written: not given here.

Assay [1] concerns macrophages on mouse abdominal wall. Description: In vivo fluorescent labeling of macrophages on mouse abdominal wall. Particulars: injected with FITC anti-mouse CD68 antibody; abdominal wall muscle removed. As for the experimental part: Referring to Example 3, using the same drug injection process, inject EK24, and FITC anti-mouse CD68 antibody (Biolegend) which was diluted with PBS from 2 μL to 500 μL. Remove mouse abdominal wall muscle for Nucblue double-staining and then observing under a fluorescence microscope (20×, light source 50%, exposure 200 ms, gain 5).

Assay [2] deals with monocyte precursors from New Zealand White Rabbit bone marrow mesenchyme. Description: In vitro fluorescent labeling of primary monocyte precursors of New Zealand White Rabbit. Format: cell-based. The settings on record: cultured. The source says: With a similar process to Example 11, bone marrow monocyte precursors of New Zealand White Rabbit were taken and cultured, then labeled by using EK24 fluorescent probe and Nucblue. Then the cells were observed under a fluorescence microscope (20×, light source 10%, exposure 200 ms, gain 5).

For assay [3], the system named is mouse peritoneal macrophages. As to the kind of experiment: In vivo fluorescent labeling of macrophages in a mouse abdominal cavity. The settings on record: probe injected into abdominal cavity, cells extracted after 4 hours, fluorescence microscope. As for the experimental part:
Dilute 300 μL of 50 μM AK9 fluorescent probe solution with serum-free DMEM incomplete medium to obtain 1 mL of solution, then inject into the abdominal cavities of 5-8 week old Kunming mice. After 4 hours, inject 5 mL of 1×PBS, and massage. After 10 minutes, sacrifice the mice by cervical vertebra dislocation. Cut the abdominal cavity skin of the mice, pierce the abdominal wall muscle by syringe, and extract the fluid in the abdominal cavity of the mice. Centrifuge the extracted peritoneal fluid at 1000 rpm for 5 min, wash twice with 1×PBS. Double-stain an appropriate number of cells with Alexa Fluor 488 anti-mouse F4/80 antibody (Biolegend). Add the stained cells to a 96-well plate and stain with a nuclear dye Nucblue (Invitrogen). Observe under EVOS FL Auto fluorescence microscope (Life Technologies, 20×, light source 50%, exposure 200 ms, gain 10) after the suspended cells were settled down at the bottom of the plate.
Table 1 lists probes, which contain the polypeptide fragments from the C-terminal fragments of Triokinases/FMN cyclases of different species and were prepared by a similar process as described in Examples 1 and 2, and in vivo imaging results of mouse peritoneal macrophages using these probes.

In assay [4] the test system is mouse alveolar macrophages. As to the kind of experiment: In vivo fluorescent labeling of mouse pulmonary macrophages after spraying through the trachea. The settings on record: sprayed into the lungs through the trachea; whole lungs observed. The text has this:
In yet another aspect of the present disclosure, it provides a method for convenient, oral and non-invasive in situ imaging or targeted drug administration for pulmonary immune cells. After spraying into the trachea of a mouse, the polypeptide or probe of the present disclosure can be diffused along the trachea in the living body, automatically target and aggregate in alveolar macrophages, and thus allow real-time and in situ imaging or targeted drug delivery to pulmonary and alveolar macrophages. The imaging may be maintained for more than 24 hours. The experiments of the present disclosure confirm that the probe described above can diffuse to lungs through mouth inhalation, and recognize macrophages therein, which is consistent with CD11c antibody recognizing alveolar macrophages.
Spray 100 μL of 50 μM EK24-drug into the lungs of 4- to 8-week-old mice through the trachea thereof, and after 18 hours, dilute 5 μL of Alexa Fluor®488 anti-mouse CD11c antibody (Biolegend) to 100 μL and then spray into the lung for 1.5 h. Dissect the mice, and take the whole lungs for observing under a fluorescence microscope (20×, light source 50%, exposure 200 ms, gain 5).

The subject of assay [5] is cultured peritoneal macrophages and other cells released from enzyme-digested mesenterium. As to the kind of experiment: Selective labeling of cultured peritoneal macrophages among other cells released from enzyme-digested mesenterium. The settings on record: peritoneal cells and mesenteries trypsin-digested, cultured 3 days. Format: cell-based, mouse. As for the experimental part:
Take 5 to 8-week-old Kunming mice, inject intraperitoneally with 5 mL of serum-free DMEM incomplete medium. After 1 hour, sacrifice the mice by cervical vertebra dislocation. Make an incision on the skin of abdominal cavity, pierce the abdominal wall muscle using the syringe, and extract the fluid in the abdominal cavity of the mice. Wash twice with 1×PBS, collect peritoneal cells by centrifugation. Also take the mesenteries of the Kunming mice and purge twice with 1×PBS in centrifuge tubes. Incubate the obtained peritoneal cells and mesenteries in 0.25% trypsin solution and digest for 30 minutes. Enrich the cells by centrifugation, and then culture for 3 days in a 96-well plate using F12/DMEM culture solution containing 10% FBS and 1% streptomycin-penicillin. Referring to Example 5, label with the EK24 fluorescent probe and Nucblue. Then the cells were observed under a fluorescence microscope (20×, light source 10%, exposure 200 ms, gain 5).

Assay [6] has as its system mouse macrophage cell line RAW264.7. As to the kind of experiment: In vitro fluorescence labeled staining of a mouse macrophage cell line. Format: cell-based. The settings on record: 10 μM, incubated 1 h. On the procedure: Culture the mouse macrophage cell line RAW264.7 in a 96-well plate, wash the wells once with 1×PBS buffer or a serum-free DMEM incomplete medium, remove the washing liquid, add EK24 solution of 10 μM which had been diluted with 100 μL of serum-free DMEM incomplete medium, and incubate in a cell culture incubator for 1 h. After that, wash the wells twice with 1× PBS buffer or the serum-free DMEM incomplete medium. Then, add DMEM complete medium containing 10% FBS and 1% streptomycin-penicillin, and double-stain the cells using nuclear dye Nucblue and observe under EVOS® FL Auto fluorescence microscope (Life Technologies, light source 10%, exposure 200 ms, gain 5).

Assay [7] relates to primary macrophages from rat peritoneal cavity. Description: In vitro fluorescent labeling of primary macrophages from rat peritoneal cavity. The class given is cell-based. The settings on record: SD rats, cells cultured more than 2 days. As for the experimental part: With the same process as in Example 9, extract cells from the abdominal cavity of 5 to 8 weeks old SD rats using 20 mL serum-free DMEM incomplete medium and culture the cells in a 96-well plate. After culturing for more than 2 days until the cells attached to the bottom firmly, a well was selected and added with EK24 fluorescent probe for incubation. Then the cells were observed under a fluorescence microscope (20×, light source 10%, exposure 200 ms, gain 5).

Assay [8] concerns cultured macrophages isolated from mouse peritoneal cavity. As to the kind of experiment: In vitro fluorescent labeling of cultured macrophages isolated from mouse peritoneal cavity. Particulars: 10 μM EK24 premixed with F4/80 antibody, 1 h at 37 °C. Format: cell-based. On the procedure:
Inject 5 mL of serum-free DMEM incomplete medium into the abdominal cavity of 5 to 8 weeks old mice, massage the abdominal cavity gently for 10 min, and sacrifice the mice by cervical vertebra dislocation. Extract the fluid from the abdominal cavity gently with a syringe, inject into a 5 mL centrifuge tube and centrifuge at 1000 rpm for 5 min, remove the supernatant, and resuspend the collected ex-vivo cells in DMEM/F12 medium containing 10% FBS, then add into a 96-well plate for culture. Generally, if cells are taken intraperitoneally for in vitro culture, macrophages would tend to adhere to the bottom of the well, and other cells would be washed off. The cells were cultured for more than 2 days until the cells attached to the bottom firmly. At this time, the cells remaining in the wells were basically macrophages. Select two wells, one as a control and the other as an experimental well. The cells of the control were nuclear stained with Nucblue. The experimental well was added with a premix of AlexaFluor®488 anti-mouse F4/80 antibody (Biolegend) and EK24 fluorescent probe, and then incubated for 1 h at 37° ° C. The premix contained 10 μM of EK24 solution and 2 μL of Alexa Fluor®488 anti-mouse F4/80 antibody diluted with 100 μL of serum-free DMEM incomplete medium. […] The cells were observed under a fluorescence microscope (20× objective lens, light source 10%, exposure 200 ms, gain 5).

Regarding “EQPDPGAVAAAAILRAILEVLQS-Y (EQPDPGAVAAAAILRAILEVLQSY; also: reporter type not given here; listed as Homo sapiens) [EK24, Y = reporter or cysteine/lysine + reporter]”, in assay [1], the “labeling of macrophages on mouse abdominal wall” value was “can be labeled” and the “labeling of other cells of mouse abdominal wall” value was “cannot be labeled”. For the same substance, the “labeling of New Zealand White Rabbit bone marrow monocyte precursors” value in assay [2] is given as “capable of labeling”. In assay [3], the “in vivo labeling / recognition of mouse peritoneal macrophages by the fluorescent probe” value is listed as “can effectively recognize macrophages in vivo; also recorded: can be labeled”. Also, the “recognition of mouse alveolar / pulmonary macrophages” value in assay [4] is reported as “recognize the same cells in mouse alveoli”. Also, in assay [5], the “staining of macrophages in mixed culture” value is “only stains macrophages” and the “staining of non-macrophages in mixed culture” value is “not stain non-macrophages”. Further, the “fluorescent labeling of RAW264.7” value in assay [6] is listed as “can be labeled”. In assay [7], the “labeling of in vitro cultured primary macrophages from rat peritoneal cavity” value is listed as “can effectively label”. Besides, the “co-localization of probe label and F4/80 antibody label” value in assay [8] was “co-localized on the same cells”.
